Values quoted from earlier work as cited in patent publication US20040191926A1 (priority 2001, published 2004).
Where a chain is given by its changes, count along the chain named. Where two headings read alike, the source gives them in different places. Where no end group is shown, it is not given here. [ ]: non-standard residue; d: D form. F2Pmp = N[C@@H](Cc1ccc(C(F)(F)P(=O)(O)O)cc1)C(=O)O

Tests used:
PTP1B [1] = target: T1, PTP1B (Homo sapiens, UniProt P18031); settings: as PTP1B substrate (ref. 31); cited from earlier work
T1 sequence (P18031 1-435): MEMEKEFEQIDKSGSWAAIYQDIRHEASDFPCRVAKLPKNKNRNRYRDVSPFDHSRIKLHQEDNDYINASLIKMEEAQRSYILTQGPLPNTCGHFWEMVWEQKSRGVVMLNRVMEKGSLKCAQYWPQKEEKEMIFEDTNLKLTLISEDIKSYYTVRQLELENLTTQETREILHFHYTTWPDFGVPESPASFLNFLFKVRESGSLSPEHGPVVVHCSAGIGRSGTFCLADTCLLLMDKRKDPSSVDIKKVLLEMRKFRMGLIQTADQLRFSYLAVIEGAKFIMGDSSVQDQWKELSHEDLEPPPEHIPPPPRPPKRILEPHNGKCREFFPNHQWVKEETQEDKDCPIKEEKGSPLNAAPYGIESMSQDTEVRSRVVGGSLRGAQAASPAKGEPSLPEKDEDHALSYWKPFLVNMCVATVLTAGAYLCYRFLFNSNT

PTP1B [2] = target: T1, PTP1B; settings: isothermal titration calorimetry, ionic strength of 0.15 M (ref. 33); cited from earlier work
PTP1B [3] = target: T1, PTP1B; settings: cited from earlier work
PTP1B/C215S = target: T2, PTP1B/C215S (Homo sapiens, UniProt P18031, C215S); settings: isothermal titration calorimetry, pH 7.0 and 25° C.; cited from earlier work
T2 sequence (P18031 1-435 C215S): T1 sequence (P18031 1-435) with C215S

O=P(O)(O)Oc1ccc(Cc2ccc(OP(=O)(O)O)cc2)cc1
Km (PTP1B [1]): 16 µM
kcat (PTP1B [1]): 6.9 s⁻¹

DADE[F2Pmp]L-NH2
Kd (PTP1B [2]): 240 nM
Ki (PTP1B [3]): 200 nM
potency relative to the same peptide containing phosphonomethyl phenylalanine (Pmp) (PTP1B [3]): over 1000 times
Ki (PTP1B [3]; enzyme inhibition, ionic strength of 0.15 M (ref. 33)): 250 nM
IC50 (PTP1B [3]; low ionic strength: pH 6.3, 50 mM Bis-Tris, 2 mM EDTA, 5 mM DTT buffer (ref. 38)): 30 nM
Ki (PTP1B [3]; low ionic strength: pH 7.3 in 50 mM Hepes, 5 mM DTT and 10 mg/mL BSA buffer (ref. 37)): 26 nM

Ac-DADEpYL-NH2 [pTyr-containing hexapeptide PTP1B substrate]
Kd (PTP1B/C215S): 800 ± 100 nM
